Reference: US20140039044A1, “Hydroxylated Polymethoxyflavone Compositions” (WLLGEN, INC., priority 2006, published 2014)

Key:
Format in all cases: cell-based, human
[1] = test system: AGS cells; test: Cell cycle distribution by flow cytometry; conditions: 24 h, Table 11
Experimental: (§1) The human cancer cells (2×10^5) were cultured in 60-mm Petri dishes and incubated for 24 h. After treated with test compounds for 24 h, the cells were then harvested, washed with PBS resuspended in 200 μL of PBS, and fixed in 800 μL of iced 100% ethanol at −20° C. After being left to stand overnight, the cell pellets were collected by centrifugation, resuspended in 1 mL of hypotonic buffer (0.5% Triton X-100 in PBS and 0.5 μg/mL RNase) and incubated at 37° C. for 30 min. Next, 1 mL of propidium iodide solution (50 μg/mL) was added, and the mixture was allowed to stand on ice for 30 min. Fluorescence emitted from the propidium iodide-DNA complex was quantitated after excitation of the fluorescent dye by FACScan cytometry (Becton Dickinson, San Jose, Calif.).
(§2) The effects of the hydrolyzed PMF-enriched compositions, nobiletin and 70% PMF OPE on cell cycle distribution were studied, following the procedures described in Section 8.4. Results for cell cycle distribution in HL-60 cells, COLO205 cells and AGS cells are provided in Table 5, Table 6 and Table 7, respectively. […] In HL-60 cells, G2/M arrest predominated in cells treated with 6N PMF concentrations ≧5 μM and with 1N PMF concentrations ≧25 μM.
(§3) Compounds A-K were evaluated in terms of their effects in arresting cell cycle progression by observing cell cycle phase distribution in cells treated with the compounds. Cells were treated with 5, 10, 25, 50, and 100 μM of one of compound A-K or DMSO (control) for 24 h and subjected to flow cytometric analysis after staining their DNA, as described above.
(§4) Similar cell cycle phase distribution studies were performed in AGS, COLO205, and HT-29 cells in response to individual PMFs, with results reported in Tables 11, 12 and 13, respectively.

[2] = test system: COLO205 cells; test: Cell cycle distribution by flow cytometry; conditions: 24 h; for Cell Cycle Distribution G0/G1 / Cell Cycle Distribution G2/M / Cell Cycle Distribution S: COLO205 cells, Table 12
Experimental: as §1, §2, §3, §4

[3] = test system: HT-29 cells; test: Cell cycle distribution by flow cytometry; conditions: for Cell Cycle Distribution G0/G1 / Cell Cycle Distribution G2/M / Cell Cycle Distribution S: 24 h
Experimental: as §1, §3, §4

[4] = test system: HL-60 cells; test: Cell survival assay (antiproliferative IC50); conditions: Homo sapiens, HL-60, read-out: Antiproliferative IC50
Experimental: (§5) Human colon carcinoma COLO205 and HT-29 cell lines (American Type Culture Collection (ATTC), Manassas, Va.) and the leukemia cell line HL-60 were maintained at 37° C. in 5% CO2 air in RPMI 1640 medium supplemented with 10% heat-inactivated fetal bovine serum (Gibco BRL, Grand Island, N.Y.), 100 units/mL penicillin, 100 μg/mL streptomycin and 2 mM 1-glutamine. The human gastric carcinoma AGS cell line (CCRC 60102), obtained from the Food Industry Research and Development Institute (Hsinchu, Taiwan), was maintained as described above, except that DMEM/F 12 was used as the medium rather than the RPMI 1640 medium. The human breast carcinoma MCF-7 cell line MCF-7 (ATTC) was cultured in RPMI 1640 medium supplemented with 5% fetal calf serum at 37° C. in a humidified atmosphere of 5% CO2 in air. The mouse macrophage cell line RAW 264.7 was maintained in RPMI 1640 supplemented with 100 U/ml penicillin, 100 μg/ml streptomycin, and 10% heat-inactivated fetal calf serum.
(§6) Cancer cells (2×10^5) were plated in 12-well Petri dishes. The next day, the medium was changed and treated with different concentration of the test compounds or compositions for 24 h. Where individual compounds were to be tested, stock solutions of the compound was prepared to contain 200 μM of the individual hydroxylated or non-hydroxylated PMF in dimethylsulfoxide (DMSO). Control cells were treated with DMSO to a final concentration of 0.05% (v/v). Depending on the objective of the particular experiment, cells were treating with test compound or composition for 1, 3 or 6 days. At the end of incubation, cells were harvested for cell count using a hemocytometer and measuring the cellular total nucleic acid content with the CyQUANT Cell Proliferation Assay Kit (Molecular Probes).
(§7) 1 N PMF and 6 N PMF compositions containing hydroxylated PMFs, prepared as described in Section 8.3 above, 70% PMF OPE and 5,6,7,8,3′,4′-hexamethoxyflavone (nobiletin) were tested for antiproliferative activity and apoptosis-inducing activity in HL-60, AGS and COLO205 cells as described in Section 8.4 above. Antiproliferative and apoptosis-inducing activities were derived as IC50 values and AC50, values, respectively, where AC50 is the concentration required for 50% apoptosis.
(§8) The PMF compounds were assayed in vitro for cell growth inhibition and for their ability to induce apoptosis in various human cancer cells, including HL-60, AGS, COLO 205, and HT-29 cells, using methods described in Section 8.4 above. Antiproliferative (IC50) and apoptosis-inducing activity (AC50) of PMFs in the HL-60, AGS, COLO 205, and HT-29 cells are reported in Table 9, where *P<0.05, **P<0.01 and ***P<0.001 indicate statistically significant differences from the control group.

[5] = test system: AGS cells; test: Cell survival assay (antiproliferative IC50); conditions: Homo sapiens, AGS, read-out: Antiproliferative IC50
Experimental: as §5, §6, §7, §8

[6] = test system: COLO205 cells; test: Cell survival assay (antiproliferative IC50); conditions: Homo sapiens, COLO 205, read-out: Antiproliferative IC50
Experimental: as §5, §6, §7, §8

COc1ccc(-c2cc(=O)c3c(OC)c(OC)c(OC)c(OC)c3o2)cc1O [I, 3′-hydroxy-5,6,7,8,4′-pentamethoxyflavone]
Cell Cycle Distribution G0/G1 ([1]; 5 μM): 57.25 ± 0.28 | Cell Cycle Distribution G2/M ([1]; 5 μM): 16.01 ± 0.21 | Cell Cycle Distribution S ([1]; 5 μM): 26.74 ± 0.49 | Cell Cycle Distribution G0/G1 ([1]; 10 μM): 58.27 ± 0.96 | Cell Cycle Distribution G2/M ([1]; 10 μM): 17.94 ± 1.07 | Cell Cycle Distribution S ([1]; 10 μM): 23.79 ± 2.03 | Cell Cycle Distribution G0/G1 ([1]; 25 μM): 49.07 ± 1.22 | Cell Cycle Distribution G2/M ([1]; 25 μM): 16.15 ± 0.69 | Cell Cycle Distribution S ([1]; 25 μM): 34.79 ± 1.90 | Cell Cycle Distribution G0/G1 ([1]; 50 μM): 62.72 ± 1.27 | Cell Cycle Distribution G2/M ([1]; 50 μM): 0.59 ± 0.74 | Cell Cycle Distribution S ([1]; 50 μM): 36.70 ± 2.00 | Cell Cycle Distribution G0/G1 ([1]; 100 μM): 69.35 ± 0.70 | Cell Cycle Distribution G2/M ([1]; 100 μM): 12.65 ± 0.84 | Cell Cycle Distribution S ([1]; 100 μM): 18.01 ± 0.14 | Cell Cycle Distribution G0/G1 ([2]; 5 μM): 64.51 ± 1.26 | Cell Cycle Distribution G2/M ([2]; 5 μM): 6.46 ± 0.35 | Cell Cycle Distribution S ([2]; 5 μM): 29.03 ± 1.61 | Cell Cycle Distribution G0/G1 ([2]; 10 μM): 64.14 ± 1.71 | Cell Cycle Distribution G2/M ([2]; 10 μM): 5.54 ± 0.41 | Cell Cycle Distribution S ([2]; 10 μM): 30.32 ± 1.30 | Cell Cycle Distribution G0/G1 ([2]; 25 μM): 67.09 ± 0.57 | Cell Cycle Distribution G2/M ([2]; 25 μM): 5.43 ± 1.17 | Cell Cycle Distribution S ([2]; 25 μM): 27.48 ± 0.62 | Cell Cycle Distribution G0/G1 ([2]; 50 μM): 68.03 ± 1.51 | Cell Cycle Distribution G2/M ([2]; 50 μM): 4.83 ± 1.48 | Cell Cycle Distribution S ([2]; 50 μM): 27.15 ± 0.04 | Cell Cycle Distribution G0/G1 ([2]; 100 μM): 83.31 ± 1.06 | Cell Cycle Distribution G2/M ([2]; 100 μM): 0.02 ± 0.02 | Cell Cycle Distribution S ([2]; 100 μM): 16.68 ± 1.04 | Cell cycle arrest, in words ([2]; COLO 205 cells, compound A 50 μM, compound I 100 μM): trends in G1 arrest | Cell Cycle Distribution G0/G1 ([3]; 5 μM): 60.78 ± 1.52 | Cell Cycle Distribution G2/M ([3]; 5 μM): 7.95 ± 0.71 | Cell Cycle Distribution S ([3]; 5 μM): 31.28 ± 0.81 | Cell Cycle Distribution G0/G1 ([3]; 10 μM): 61.09 ± 1.06 | Cell Cycle Distribution G2/M ([3]; 10 μM): 7.89 ± 0.23 | Cell Cycle Distribution S ([3]; 10 μM): 31.02 ± 1.30 | Cell Cycle Distribution G0/G1 ([3]; 25 μM): 60.90 ± 0.87 | Cell Cycle Distribution G2/M ([3]; 25 μM): 7.48 ± 0.64 | Cell Cycle Distribution S ([3]; 25 μM): 31.63 ± 0.23 | Cell Cycle Distribution G0/G1 ([3]; 50 μM): 66.36 ± 0.88 | Cell Cycle Distribution G2/M ([3]; 50 μM): 9.83 ± 0.61 | Cell Cycle Distribution S ([3]; 50 μM): 23.81 ± 0.28 | Cell Cycle Distribution G0/G1 ([3]; 100 μM): 74.18 ± 2.33 | Cell Cycle Distribution G2/M ([3]; 100 μM): 0.37 ± 0.40 | Cell Cycle Distribution S ([3]; 100 μM): 25.45 ± 2.72 | Cell cycle arrest, in words ([3]; 5-100 μM, 24 h exposure): significant accumulation of cells in G1 phase | IC50 [4]: 52.72 ± 0.22 µM | IC50 [5]: 65.75 ± 0.41 µM | IC50 [6]: 76 ± 1.88 µM
